{"source": "patent US12702692B2", "about": "“Therapeutic use of calcium-activated chloride channel peptide activator” (CENTRE NATIONAL DE LA RECHERCHE SCIENTIFIQUE, priority 2020, dated 2026)", "key": {"TMEM16A": {"target": "T1, TMEM16A (Mus musculus, UniProt Q8BHY3)", "T1 construct": "expressed in transfected cells; host or cells: HEK293T", "T1 sequence (Q8BHY3 1-960)": "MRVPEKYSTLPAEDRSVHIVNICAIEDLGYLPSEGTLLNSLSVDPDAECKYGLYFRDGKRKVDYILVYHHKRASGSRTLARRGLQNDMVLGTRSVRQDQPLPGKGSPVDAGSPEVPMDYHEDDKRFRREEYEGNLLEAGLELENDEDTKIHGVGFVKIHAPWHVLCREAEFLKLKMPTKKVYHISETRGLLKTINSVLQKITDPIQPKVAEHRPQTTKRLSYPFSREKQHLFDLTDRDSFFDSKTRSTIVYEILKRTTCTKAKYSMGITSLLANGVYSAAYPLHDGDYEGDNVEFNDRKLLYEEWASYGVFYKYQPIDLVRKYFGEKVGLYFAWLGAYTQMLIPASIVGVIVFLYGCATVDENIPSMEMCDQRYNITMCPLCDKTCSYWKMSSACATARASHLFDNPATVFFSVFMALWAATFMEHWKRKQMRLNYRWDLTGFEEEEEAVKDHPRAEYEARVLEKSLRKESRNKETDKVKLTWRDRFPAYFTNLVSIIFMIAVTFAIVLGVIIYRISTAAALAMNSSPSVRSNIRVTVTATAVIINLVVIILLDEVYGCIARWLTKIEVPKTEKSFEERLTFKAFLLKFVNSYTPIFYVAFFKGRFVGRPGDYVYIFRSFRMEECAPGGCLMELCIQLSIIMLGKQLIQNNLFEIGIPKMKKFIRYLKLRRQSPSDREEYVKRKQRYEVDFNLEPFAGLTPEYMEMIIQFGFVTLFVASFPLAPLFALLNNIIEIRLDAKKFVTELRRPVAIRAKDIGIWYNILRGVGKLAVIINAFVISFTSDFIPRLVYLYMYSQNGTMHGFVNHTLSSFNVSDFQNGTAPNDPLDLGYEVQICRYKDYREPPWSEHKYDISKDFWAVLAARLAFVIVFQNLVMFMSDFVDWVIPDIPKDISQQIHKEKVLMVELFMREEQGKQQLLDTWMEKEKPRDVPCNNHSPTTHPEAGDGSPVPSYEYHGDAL", "assay": "Whole-cell patch-clamp of HEK293T cells expressing TMEM16A", "assay_type": "cell-based", "procedure": "mTMEM16A (kindly provided by Dr Lily Yeh Jan) and hKCNE1 cDNA were subcloned in pIRES2eGFP, pXOOM, pcDNA3.1, pCDNA3.1-GFP and pCMV-HA vectors. Truncations and mutations on KCNE1 were generated by PCR. For SiMPull experiments, HA-tags were fused to the N-terminus of sequences, whereas GFP-tags were fused to C-terminal part. HEK293T and PCT cells were transiently co-transfected using Lipofectamine 2000 or the calcium phosphate method with a total amount of 1 and 3.5 μg of DNA, respectively, and seeded on 18 mm diameter coverslips. HEK cells were maintained in DMEM with 5% FBS on poly-L-lysine-coated glass coverslips in 12 well plates. PCT cells from wild type and knock-out mice were microdissected as described previously and maintained in F12 (Gibco) on collagen-coated glass coverslips.\nHEK293T and PCT cell electrophysiology was performed 24-48 h after transfection. For whole-cell patch-clamp experiments cells were recorded in a bath solution containing (in mM) 150 NaCl, 5 KCl, 2 CaCl2 and 10 HEPES, pH 7.4 and 0.05% BSA. The glass pipettes (2-5 MΩ of resistance) were filled with (in mM) 5 NaCl, 135 CsCl, 2 MgCl2, 5 EGTA, 10 HEPES, pH 7.3. Cells were recorded either after incubation of 30 min with the peptide or during perfusion with the peptide. Total calcium concentration was calculated with Maxchelator (maxchelator.standford.edu) for a temperature of 20° C. HEK293T and PCT cells were recorded at room temperature in voltage-clamp mode using an Axopatch 200A (Molecular Devices) amplifier. Signals were filtered at 10 kHz and digitalized at 20 kHz. Whole-cell currents were elicited by voltage-ramps (from −100 to +100 mV, 1 s) and I-V stimulation pulses (from −100 to +100 mV in 20 mV increments, 1 s each pulse), holding the cells at −80 mV. Current densities were measured at +100 mV. Cell recordings, data acquisition and analysis of electrophysiology experiments were performed using pClamp software (Molecular Devices)."}, "[1]": {"assay": "Acute effect on tear fluid secretion (tearing rate, phenol red thread) in naive rats", "assay_type": "in vivo, Sprague-Dawley rats", "procedure": "Sprague-Dawley rats (males, around 200 g) were purchased from Charles River and adapted one week before processing the experiment. Two-three rats per cage were housed in a controlled environment of 12 hours intervals of light/dark cycles and free access to food and water. Animal experiments were approved by the Animal Care and Use Committee of the University of Barcelona (CEEA) and the […] de Territori i Sostenibilitat of Generalitat de Catalunya, Catalonia, Spain (319/19; 10935) and followed the ethical guidelines of the International Association for the Study of Pain. […] (also named Nter 13 peptide or […] NO: 2)) and scramble ([…] NO: 7)) peptides were purchased from GenScript Biotech (Leiden, Netherlands) and provided by CNRS. Both peptides were dissolved in Phosphate Buffered Saline (PBS) at 10 mM and used for topical ocular application (5 ul per eye). Tear fluid secretion (tearing rate) was measured using phenol red threads (Zone-Quick, Menicon, Nagoya, Japan) placed on the lower eyelid for 30 s without topical anesthesia (Trost, 2007; Acosta 2013). Tearing rate was determined with an accuracy of ±0.5 mm by measurement of the length of the red portion of the thread. After habituation of the animals, basal tearing rate was measured in both eyes before any topical application of peptides. Then, animals were divided in different groups and a solution containing vehicle (PBS), amiloride (1 mM), peptide N13 or peptide scramble was topically applied to the ocular surface (5 μl) and tearing rate was measured at 1, 3, 6, 12 and 24 h. Tearing rate measurements were done blind to the treatment received by the animals. Data are presented as mean±standard error of the mean (SEM). Statistical differences between different sets of data were assessed by performing repeated measured One-way ANOVA plus Bonferroni's post-tests (each data point in an experimental group vs. basal values) or repeated measured Two-way ANOVA plus Bonferroni's post-tests (each data point in […] group vs. Scramble or Vehicle group; or point in […] or amiloride groups vs. Vehicle group) using Prism 9 (GraphPad Software, San Diego, CA). The significance level was set at p<0.05 in all statistical analyses."}}}
{"sequence": "LARRSPRSSDGKL (SEQ ID NO: 2) (amino acid residues between positions 30 to 42 of the human KCNE1 protein sequence) [N13ter]", "values": [{"measurement": "current density elicited by peptide at +100 mV", "setting": "TMEM16A; 100 μM peptide, HEK293T cells expressing TMEM16A alone", "result": "15.48±3.25", "unit": "pA/pF"}, {"measurement": "potency on TMEM16A compared with rat N13 peptide", "setting": "TMEM16A; 100 μM, HEK293T expressing TMEM16A and Xenopus oocytes (FIG. 9)", "result": "more potent"}, {"measurement": "effect of peptide application on TMEM16A current", "setting": "TMEM16A; HEK293T cells expressing TMEM16A alone, 100 μM for Nter13, S38G and rat peptides", "result": "induces TMEM16A current properties"}, {"measurement": "tearing rate at 6 h", "setting": "[1]; 10 mM topical, 5 μl per eye, n=20 eyes, basal 7.65±0.49 mm (N13ter)", "result": "9.65±0.57", "unit": "mm"}, {"measurement": "tearing rate at 12 h", "setting": "[1]; 10 mM topical, 5 μl per eye, n=20 eyes, basal 7.65±0.49 mm (N13ter), 8.10±0.54 mm (Scramble)", "result": "8.85±0.73", "unit": "mm"}, {"measurement": "tearing rate at 12 h", "setting": "[1]; N13ter 10 mM topical, vehicle/amiloride study, n=12 eyes, basal 4.53±0.43", "result": "6.66±0.64", "unit": "mm"}, {"measurement": "time after application at which the enhancing effect becomes significant", "setting": "[1]; N13ter 10 mM vs scramble peptide", "result": "6 to 12", "unit": "h"}, {"measurement": "effect on tearing rate compared with Vehicle", "setting": "[1]; N13ter 10 mM, amiloride 1 mM, vehicle PBS", "result": "significant increase in tearing rate"}, {"measurement": "effect on tearing rate", "setting": "[1]; N13ter vs Scramble study, both 10 mM topical", "result": "small but significant increase in tearing rate"}, {"measurement": "effect on tearing rate vs vehicle, pooled data", "setting": "[1]; all N13ter 10 mM studies pooled, n=32 eyes, normalized to basal", "result": "statistically significant effect at 1, 3, 6, 12 and 24 h, obtaining the maximal increase at 6 and 12 h"}]}
